Entries after “also recorded” stand apart in the source; their conditions may differ.
Columns and labels:
[1] = system: Draining Lymph Nodes (LNs) from the Normal Breast Tissue; assay: Dynamic micro-MR mammo-lymphangiography after injection into normal mammary gland (Example 1); assay type: in vivo, mice; conditions: athymic nu/nu mice, 0.15 μmol Gd into the mammary gland; GPDM imaged at 12, 24, 36 min, then PAMAM-G6
Experimental: Mice were anesthetized with 1.15 mg sodium pentobarbital (Dainabot, Osaka, Japan), and then injected with 0.15-0.24 μmol Gd/5-8 μL of the PAMAM-G6 contrast agent into normal mammary glands or mammary tissue surrounding a tumor (peritumorally). Dynamic micro-MR images were obtained using a 1.5-Tesla superconductive magnet unit (Signa LX, General Electric Medical System, Milwaukee, Wis.) with a birdcage type coil of 3 cm diameter fixed by a custom made coil holder. Single and double “breast coils” used for imaging breasts in humans are commercially available, for example, from GE Medical Systems (Milwaukee, Wis.) and are routinely available in outpatient MRI centers. The mice were wrapped with gauze to stabilize their body temperature and were placed at the center of the coils.
In order to evaluate the lymphatic drainage from the normal mammary gland of either Balb/c mice (n=5) or athymic nu/nu mice (n=5), 3D-fast spoiled gradient echo (3D-fastSPGR (efgre3d package; Signa Horizon, GE); repetition time/echo time 19.2/7.2 msec; inversion time 47 msec; 31.2 kHz, flip angle 30°, 4 excitations; 36 slice encoding steps; scan time 4 min 49 seconds) with chemical shift fat-suppression was used 6, 12, 18, 24, 30, 36, 42, and 48 min after injection of the contrast agent. The coronal images were reconstructed with 0.6-mm section thickness every 0.3-mm. The field of view was 8×4 cm and the size of the matrix was 512×256. The slice data were processed into 3D images using the maximum intensity projection (MIP) method with the same window and level (window 3500 and level 2100) (Advantage Windows, General Electric Medical System). After imaging, the mice were sacrificed by carbon dioxide inhalation.
Athymic nu/nu mice (n=4) were anesthetized and injected with 0.15 μmol Gd of GPDM into the mammary gland, and images were taken 12, 24, and 36 min after injection. Following these three images, these mice were subsequently injected with 0.15 μmol Gd of PAMAM-G6 contrast agent in the mammary gland, and images were taken at 12 and 24 min post-injection of the PAMAM-G6 contrast agent (at 48 and 60 min post-injection of GPDM).

[2] = system: axillary lymph nodes and their lymphatic vessels; assay: Dynamic 3D-MR lymphangiography, effect of contrast agent size (Example 4); assay type: in vivo, athymic nu/nu mice
Experimental: Mice were anesthetized with 1.15 mg sodium pentobarbital (Dainabot, Osaka, Japan) by intraperitoneal injection. Then 0.15 μmolGd/5 μL of all nano-size contrast agents or 0.45 μmolGd/5 μL of Gd-[DTPA]-dimeglumine were injected into normal mammary glands or mammary tissue surrounding a tumor. Dynamic MR images were obtained using a 1.5-Tesla superconductive magnet unit (Signa LX, General Electric Medical System, Milwaukee, Wis.) with a birdcage type coil of 3 cm diameter fixed by a custom-made coil holder. The mice were wrapped with gauze to conserve their body temperature and were placed at the center of the coils.
In order to evaluate the effect of contrast agent molecular size on the ability to visualize the lymphatics and lymph nodes of athymic nu/nu mice, thirty five non-tumor bearing nu/nu mice were divided into seven groups (n=5). The mice were evaluated with 3D-fast spoiled gradient echo (3D-fastSPGR (efgre3d package; Signa Horizon, GE); repetition time/echo time 19.2/7.2 msec; inversion time 47 msec; bandwidth 31.2 kHz, flip angle 30°, 4 excitations; 36 slice encoding steps; scan time 4 minutes 49 seconds) with chemical shift fat-suppression at 6, 12, 18, 24, 30, and 36 minutes post-injection of each contrast agent. The coronal images were reconstructed with 0.6-mm section thickness every 0.3-mm. The field of view was 8×4 cm and the size of the matrix was 512×256. The slice data were processed into 3D images using the maximum intensity projection (MIP) method with the same window and level (window 3500 and level 2100) (Advantage Windows, General Electric Medical System). The enhancement ratio was calculated by taking the average signal intensity in the axillary lymph node and dividing it by the signal intensity in the adjacent muscle.

[3] = system: axillary lymph nodes and their lymphatic vessels; assay: as above; assay type: in vivo, athymic nu/nu mice; conditions: triple dose, 3 min post-injection (data not shown)
[4] = system: deep lymphatic system (lymph nodes, thoracic duct); assay: Whole-body dynamic 3D-micro-MRL after intracutaneous injection, normal mice (Examples 2, 3); assay type: in vivo; conditions: for Number of Mice in Which the Thoracic Duct was Visualized/Number of Mice Examined: Normal Mice, 0.1 μmolGd intracutaneously
Experimental: The mice were anesthetized with 1.15 mg sodium pentobarbital (Dainabot, Osaka, Japan) by intraperitoneal injection, and then injected intracutaneously with 0.1 μmolGd of PAMAM-G8, DAB-G5, PAMAM-G4, Gadomer-17, or GPDM into four middle phalanges in all four extremities. Dynamic micro-MR images were obtained using a 1.5-Tesla superconductive magnet unit (Signa LX, General Electric Medical System, Milwaukee, Wis.) with a round birdcage type coil of 3 cm diameter fixed by a custom-made coil holder. Four to eight female mice (7 weeks old, 18-21 g body weight) in each group were used and each contrast agent was prepared at least three separate times for these imaging studies. The mice were wrapped with gauze to stabilize their body temperature and were placed at the center of the coils.
A 3D-fast spoiled gradient echo (3D-fastSPGR (efgre3d package; Signa Horizon, GE); repetition time/echo time 28.5/7.9 msec; inversion time 65 msec; 31.2 kHz, flip angle 30°, four excitations; 40 slice-encoding steps; scan time 7 min 36 seconds) with chemical shift fat-suppression was used 10, 20, 30, and 45 min after injection of the contrast agents. The coronal images were reconstructed with 0.6-mm section thickness at every 0.3-mm. The field of view was 6×3 cm and the size of the matrix was 512×256. The intensities of the regions of interest (for example, a whole axillary lymph node, and the liver) were measured, and then the time-intensity curves analyzed. The data were expressed as the axillary lymph node-to-muscle and the axillary lymph node-to-liver ratios. The slice data were processed into 3D images using the MIP method with the same window and level (window 3500 and level 2300) (Advantage Windows, General Electric Medical System). Two board-certified radiologists separately read a set of stereo views of 3D-MRL for all studies, and estimated the visualization of the thoracic duct. After imaging, the mice were sacrificed by carbon dioxide inhalation.
In this example, the PAMAM-G8 contrast agent is compared to GPDM. PAMAM-G8 was prepared as described in Example 2, and GPDM was purchased (Schering AG, Berlin, Germany). Animal models, administration of the contrast agents, and 3D-micro-MRL were as described in Example 2.

[5] = Tokumitsu et al. 2000; cited from earlier work
[6] = mouse, in vivo, listed as Gd-DTPA

CNC[C@H](O)[C@@H](O)[C@H](O)[C@H](O)CO.CNC[C@H](O)[C@@H](O)[C@H](O)[C@H](O)CO.O=C([O-])CN(CCN(CC(=O)[O-])CC(=O)O)CCN(CC(=O)[O-])CC(=O)O.[Gd+3] [GPDM, gadopentetate dimeglumine, reference compound]
Visualization of draining lymph nodes and lymphatic vessels (FIG. 5) [1]: not well visualized
Visualization of axillary lymph nodes and their lymphatic vessels ([2]; 6-36 minutes post-injection into mammary gland): failed to opacify either the lymph nodes or the lymphatic vessels
Signal intensity of adjacent muscle in comparison to G6 and G8 [2, 6]: significantly higher than those measured with G6 and G8; also recorded: higher signal in the adjacent muscle
Signal intensity within the axillary lymph nodes in comparison to G6 and G8 [2, 6]: lower signal intensities; also recorded: significantly lower signal
Contrast between target lymph node and surrounding tissue [3]: did not help to achieve good enough contrast
Image enhancement after 45 minutes ([4]; Example 2, FIG. 10B): Virtually no image enhancement
Visualization of deep lymph nodes ([4]; Example 2, normal mice, 10-45 min after injection): did not allow most of the lymph nodes to be visualized even at early times
Visualization of deep lymph nodes ([4]; Example 3, FIG. 15): not with GPDM
Number of Mice in Which the Thoracic Duct was Visualized/Number of Mice Examined ([4]; 10 min): 2/5
Number of Mice in Which the Thoracic Duct was Visualized/Number of Mice Examined ([4]; 20 min): 0/5
Number of Mice in Which the Thoracic Duct was Visualized/Number of Mice Examined ([4]; 30 min): 0/5
Number of Mice in Which the Thoracic Duct was Visualized/Number of Mice Examined ([4]; 45 min): 0/5
Clearance from the body [5]: clear too rapidly from the body
